Experimental data published in PubChem BioAssay AID256 (DTP/NCI, 2004).
Several values for one entry are separate records, joined by “and”; a condition that tells them apart may be missing. Equal entries are not always repeated. Inconclusive results and toxic doses are left out. How the source made its calls: active means survival T/C of 150% or more; inactive means T/C below 125% in these data.

Tested on: CD2F1 mice, L1210 leukemia ip, survival T/C
Assay: NCI In Vivo Anticancer Drug Screen. Data for tumor model L1210 Leukemia (intraperitoneal) in CD2F1 (CDF1) mice
Settings: endpoint: mean survival time, higher = longer survival
Method in brief: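 Ratio T/C, where T is the treated-group value and C the vehicle-dosed control value, from mice implanted with a transplantable tumor.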

[1] = dose: 100.0 mg/kg/injection, schedule: Q01DX009 (ip), vehicle: saline with Tween-80
[2] = dose: 200.0 mg/kg/injection, schedule: Q01DX009 (ip), vehicle: saline with Tween-80
[3] = dose: 400.0 mg/kg/injection, schedule: Q01DX009 (ip), vehicle: saline with Tween-80
[4] = dose: 100.0 mg/kg/injection, schedule: Q04DX003 (ip), vehicle: saline with Tween-80
[5] = dose: 200.0 mg/kg/injection, schedule: Q04DX003 (ip), vehicle: saline with Tween-80
[6] = dose: 400.0 mg/kg/injection, schedule: Q04DX003 (ip), vehicle: saline with Tween-80

Measured: T/C

CN(C)c1ccc(C(=C2C=CC(=[N+](C)C)C=C2)c2ccc(N(C)C)cc2)cc1 (tested in a mixture with another compound)
inactive: dose: 0.15 mg/kg/injection, schedule: Q01DX009 (ip), vehicle: saline with Tween-80 110 % of control | dose: 0.31 mg/kg/injection, schedule: Q01DX009 (ip), vehicle: saline with Tween-80 100 % of control | dose: 0.31 mg/kg/injection, schedule: Q01DX009 (ip), vehicle: suspension in saline 97 % of control | dose: 0.62 mg/kg/injection, schedule: Q01DX009 (ip), vehicle: saline with Tween-80 105 % of control | dose: 0.62 mg/kg/injection, schedule: Q01DX009 (ip), vehicle: suspension in saline 106 % of control | dose: 1.25 mg/kg/injection, schedule: Q01DX009 (ip), vehicle: saline with Tween-80 113 % of control | dose: 1.25 mg/kg/injection, schedule: Q01DX009 (ip), vehicle: suspension in saline 101 % of control | dose: 2.5 mg/kg/injection, schedule: Q01DX009 (ip), vehicle: saline with Tween-80 117 % of control | dose: 2.5 mg/kg/injection, schedule: Q01DX009 (ip), vehicle: suspension in saline 106 % of control

CC[N+](C)(CC)Cc1ccc([NH-])c([NH-])c1.[Cl][Pt+2][Cl]
inactive: dose: 3.13 mg/kg/injection, schedule: Q04DX003 (ip), vehicle: water 90 % of control | dose: 6.25 mg/kg/injection, schedule: Q04DX003 (ip), vehicle: water 95 % of control | dose: 12.5 mg/kg/injection, schedule: Q04DX003 (ip), vehicle: water 94 % of control

CC(C)OC(=O)Nc1ccncc1
inactive: dose: 25.0 mg/kg/injection, schedule: Q04DX002 (ip), vehicle: saline with Tween-80 104 % of control

N#CC1C(C#N)C1C#N (stereo not given)
inactive: dose: 100.0 mg/kg/injection, schedule: Q01DX001 (ip), vehicle: saline with Tween-80 98 % of control | dose: 200.0 mg/kg/injection, schedule: Q01DX001 (ip), vehicle: saline with Tween-80 98 % of control

CN(C)c1ccc(/C=C(\C#N)c2ccc([N+](=O)[O-])cc2)c(Cl)c1
inactive: [1] 97 % of control | [2] 97 % of control | [3] 92 % of control

OCC1OC(n2cnc3c(NCCc4ccccc4)ncnc32)C(O)C1O (stereo not given)
inactive: dose: 12.5 mg/kg/injection, schedule: Q01DX005 (ip), vehicle: other 101 % of control | dose: 25.0 mg/kg/injection, schedule: Q01DX005 (ip), vehicle: other 110 % of control | dose: 50.0 mg/kg/injection, schedule: Q01DX005 (ip), vehicle: other 92 % of control

O=S(=O)(Nc1cc(S(=O)(=O)c2ccccc2)c(O)c2ccccc12)c1ccccc1
inactive: [4] 96 % of control | [5] 86 % of control | [6] 91 % of control

CCOP(=O)(Cc1cccc2ccccc12)OCC
inactive: dose: 100.0 mg/kg/injection, schedule: Q01DX001 (ip), vehicle: Klucel (hydroxypropylcellulose) (HPC) 103 % of control | dose: 200.0 mg/kg/injection, schedule: Q01DX001 (ip), vehicle: Klucel (hydroxypropylcellulose) (HPC) 96 % of control | dose: 400.0 mg/kg/injection, schedule: Q01DX001 (ip), vehicle: Klucel (hydroxypropylcellulose) (HPC) 100 % of control

CS(=O)(=O)c1nc2ccccc2s1
inactive: [1] 103 % of control | [2] 91 % of control

CC(C)CCCC(C)C1CCC2C3CCC4CCCCC4(C)C3CCC12C (stereo not given)
inactive: [1] 95 % of control | [2] 94 % of control | [3] 105 % of control

CCc1ccccc1NC(=O)/C=C/C(=O)O
inactive: [1] 102 % of control | [4] 98 % of control | [2] 100 % of control | [3] 102 % of control | [6] 92 % of control

O=C(CCl)C(c1ccc([N+](=O)[O-])cc1)c1ccc([N+](=O)[O-])cc1
inactive: [1] 98 % of control | [4] 100 % of control | [2] 98 % of control | [5] 103 % of control | [3] 98 % of control | [6] 108 % of control

CCCC[n+]1ccccc1Cc1ccccc1
inactive: dose: 25.0 mg/kg/injection, schedule: Q04DX003 (ip), vehicle: saline 101 % of control

Cc1ccc(/C(O)=C2/CC(C)(C)c3ccccc3C2=O)cc1
inactive: dose: 100.0 mg/kg/injection, schedule: Q04DX003 (ip), vehicle: acetone 92 % of control | dose: 200.0 mg/kg/injection, schedule: Q04DX003 (ip), vehicle: acetone 92 % of control | dose: 400.0 mg/kg/injection, schedule: Q04DX003 (ip), vehicle: acetone 88 % of control

S=C(Nc1ccccc1)N1CCC(CCCC2CCN(C(=S)Nc3ccccc3)CC2)CC1
inactive: [4] 91 % of control | [5] 88 % of control

CCCCCCCCCCCCCCCCOc1ccc(S(=O)(=O)NC(C)(C)C)cc1[N+](=O)[O-]
inactive: [4] 105 % of control | [5] 96 % of control | [6] 94 % of control

O=C1CC2C3C=CC4C3CC2C14 (stereo not given)
inactive: dose: 75.0 mg/kg/injection, schedule: Q01DX001 (ip), vehicle: saline with Tween-80 97 % of control | dose: 150.0 mg/kg/injection, schedule: Q01DX001 (ip), vehicle: saline with Tween-80 101 % of control

S=C1NCCO1
inactive: [1] 100 % of control and 95 % of control | [4] 95 % of control | [2] 91 % of control and 97 % of control | [5] 93 % of control | [3] 112 % of control | [6] 104 % of control

C=CC1(C)C(C)=C(C)C(C)=C1C
inactive: dose: 100.0 mg/kg/injection, schedule: Q01DX001 (ip), vehicle: saline sonified 100 % of control | dose: 200.0 mg/kg/injection, schedule: Q01DX001 (ip), vehicle: saline sonified 94 % of control | dose: 400.0 mg/kg/injection, schedule: Q01DX001 (ip), vehicle: saline sonified 89 % of control

NC(=O)C(O)(c1ccc(Br)cc1)C(Cl)Cl (stereo not given)
inactive: dose: 28.5 mg/kg/injection, schedule: Q04DX002 (ip), vehicle: saline with Tween-80 97 % of control | dose: 50.0 mg/kg/injection, schedule: Q04DX002 (ip), vehicle: saline with Tween-80 107 % of control | dose: 57.0 mg/kg/injection, schedule: Q04DX002 (ip), vehicle: saline with Tween-80 95 % of control | dose: 100.0 mg/kg/injection, schedule: Q04DX002 (ip), vehicle: saline with Tween-80 102 % of control | dose: 114.0 mg/kg/injection, schedule: Q04DX002 (ip), vehicle: saline with Tween-80 98 % of control

CN(C)c1nc(N)cc(-c2ccncc2)n1
inactive: dose: 100.0 mg/kg/injection, schedule: Q04DX002 (ip), vehicle: saline 96 % of control | dose: 200.0 mg/kg/injection, schedule: Q04DX002 (ip), vehicle: saline 88 % of control

CC(=O)n1c2ccccc2c2ccccc21
inactive: dose: 50.0 mg/kg/injection, schedule: Q01DX009 (ip), vehicle: saline with Tween-80 106 % of control | [1] 109 % of control | [2] 106 % of control

COc1ccc(-c2nc3cc(Cl)ccc3c(=O)o2)cc1
inactive: [4] 88 % of control | [5] 91 % of control | [6] 88 % of control

[Cl][Pt+2][Br].[NH-]CC[NH-]
inactive: dose: 0.47 mg/kg/injection, schedule: Q01DX009 (ip), vehicle: saline with Tween-80 115 % of control | dose: 0.95 mg/kg/injection, schedule: Q01DX009 (ip), vehicle: saline with Tween-80 105 % of control | dose: 1.9 mg/kg/injection, schedule: Q01DX009 (ip), vehicle: saline with Tween-80 110 % of control | dose: 3.8 mg/kg/injection, schedule: Q04DX003 (ip), vehicle: saline with Tween-80 101 % of control | dose: 7.5 mg/kg/injection, schedule: Q01DX009 (ip), vehicle: saline with Tween-80 94 % of control | dose: 7.5 mg/kg/injection, schedule: Q04DX003 (ip), vehicle: saline with Tween-80 121 % of control

Cc1cccc(C)c1NC1=CC(=O)C(=O)c2ccccc21
inactive: dose: 75.0 mg/kg/injection, schedule: Q01DX001 (ip), vehicle: saline 95 % of control | dose: 150.0 mg/kg/injection, schedule: Q01DX001 (ip), vehicle: saline 89 % of control | dose: 300.0 mg/kg/injection, schedule: Q01DX001 (ip), vehicle: saline 97 % of control
